Test results from the supplement of paper PMC8671470.
Counter-ions that a name gives are not always drawn. ± gives the standard deviation of the averaged measurements.

Legend:
Details in all cases: 72 h
MOLM-13 [1] = test system: MOLM-13
Summary of the method: (§1)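 Fifteen myeloid leukaemia cell lines were seeded in RPMI 1640 at densities titrated to the linear growth range and placed in 384-well plates with acoustically pre-printed compounds at five tenfold doses from 1 to 10,000 nM, in duplicate. After 72 h at 37 °C with 5% CO2, luminescent ATP viability was normalised to vehicle and to a positive control at 10 µM, and curves were fitted with a four-parameter log-logistic model. The IC50 was obtained from these fits.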

Mono-Mac-6 [2] = test system: Mono-Mac-6
Summary of the method: as §1

LAMA-84 [3] = test system: LAMA-84
Summary of the method: as §1

SHI-1 [4] = test system: SHI-1
Summary of the method: as §1

KCL-22 [5] = test system: KCL-22
Summary of the method: as §1

MV4-11 [6] = test system: MV4-11
Summary of the method: as §1

THP-1 [7] = test system: THP-1
Summary of the method: as §1

KU-812 [8] = test system: KU-812
Summary of the method: as §1

NOMO-1 [9] = test system: NOMO-1
Summary of the method: as §1

HEL [10] = test system: HEL
Summary of the method: as §1

KG-1 [11] = test system: KG-1
Summary of the method: as §1

ML-2 [12] = test system: ML-2
Summary of the method: as §1

K-562 [13] = test system: K-562
Summary of the method: as §1

BV-173 [14] = test system: BV-173
Summary of the method: as §1

HL-60 [15] = test system: HL-60
Summary of the method: as §1

MOLM-13 [16] = assay: cell viability (% survival relative to DMSO control, bortezomib = 0%); higher = less cytotoxic
Summary of the method: (§2)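 Fifteen myeloid leukaemia cell lines were exposed to compounds at 1, 10, 100, 1000 or 10000 nM in 384-well plates for 72 h at 37 °C and 5% CO2. Viability was read by CellTiter-Glo luminescence and normalised, with vehicle as 100% and a 10 µM positive control as 0%. Values are percent survival averaged over duplicates.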

Mono-Mac-6 [17] = assay: as above
Summary of the method: as §2

LAMA-84 [18] = assay: as above
Summary of the method: as §2

SHI-1 [19] = assay: as above
Summary of the method: as §2

KCL-22 [20] = assay: as above
Summary of the method: as §2

MV4-11 [21] = assay: as above
Summary of the method: as §2

THP-1 [22] = assay: as above
Summary of the method: as §2

KU-812 [23] = assay: as above
Summary of the method: as §2

NOMO-1 [24] = assay: as above
Summary of the method: as §2

HEL [25] = assay: as above
Summary of the method: as §2

KG-1 [26] = assay: as above
Summary of the method: as §2

ML-2 [27] = assay: as above
Summary of the method: as §2

K-562 [28] = assay: as above
Summary of the method: as §2

BV-173 [29] = assay: as above
Summary of the method: as §2

HL-60 [30] = assay: as above
Summary of the method: as §2

HL-60 [31] = assay: cell viability (% survival relative to DMSO control); higher = less cytotoxic
Summary of the method: (§3)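 For each screen, HL-60 cells in RPMI 1640 with 10% FBS carried either DMSO or 100 nM of one of three metabolic inhibitors while the full library was applied at five tenfold concentrations, 1–10,000 nM, in duplicate. Plates were 384-well and were kept 72 h at 37 °C, 5% CO2. Viability, measured by CellTiter-Glo, was normalised to wells with DMSO and with 10 μM proteasome inhibitor. Where area under the curve appears, it was fitted by four-parameter log-logistic models in drc and PharmacoGx.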

HL-60 [32] = assay: area under dose-response curve (viability, 1 nM-10 uM) (fraction (0-1)); higher = more sensitive
Summary of the method: as §3

CCOC(=O)c1cncn1[C@H](C)c1ccccc1 [Etomidate]
Details | IC50 (cell viability) [µM]
BV-173 [14] | > 10
HEL [10] | > 10
HL-60 [15] | > 10
K-562 [13] | > 10
KCL-22 [5] | > 10
KG-1 [11] | > 10
KU-812 [8] | > 10
LAMA-84 [3] | > 10
ML-2 [12] | > 10
MOLM-13 [1] | > 10
MV4-11 [6] | > 10
Mono-Mac-6 [2] | > 10
NOMO-1 [9] | > 10
SHI-1 [4] | > 10
THP-1 [7] | > 10

CCOC(=O)c1ccc(-c2ccc(OC(=O)N(C)Cc3cccc(-c4ccncc4)c3)cc2)cc1 [WWL113]
cell viability [%]
Details | 1 nM | 10 nM | 100 nM | 1000 nM | 10000 nM
BV-173 [29] | 123 | 114 | 102 | 105 | 94.9
HEL [25] | 134 | 99.2 | 91.9 | 104 | 99.6
HL-60 [30] | 103 | 91.3 | 89.1 | 114 | 125
K-562 [28] | 121 | 105 | 94 | 92.1 | 87.5
KCL-22 [20] | 132 | 95.4 | 98.7 | 92.9 | 110
KG-1 [26] | 99.2 | 93.4 | 92.7 | 94.3 | 107
KU-812 [23] | 112 | 100 | 105 | 91.6 | 92
LAMA-84 [18] | 113 | 104 | 94.8 | 114 | 101
ML-2 [27] | 104 | 101 | 94.7 | 106 | 106
MOLM-13 [16] | 120 | 122 | 97.3 | 85.8 | 105
MV4-11 [21] | 129 | 101 | 105 | 103 | 93.3
Mono-Mac-6 [17] | 108 | 112 | 102 | 94.2 | 109
NOMO-1 [24] | 104 | 106 | 88.1 | 104 | 105
SHI-1 [19] | 114 | 100 | 92 | 95.2 | 108
THP-1 [22] | 114 | 101 | 95.2 | 101 | 102

Details | IC50 (cell viability) [µM]
BV-173 [14] | > 10
HEL [10] | > 10
HL-60 [15] | > 10
K-562 [13] | > 10
KCL-22 [5] | > 10
KG-1 [11] | > 10
KU-812 [8] | > 10
LAMA-84 [3] | > 10
ML-2 [12] | > 10
MOLM-13 [1] | > 10
MV4-11 [6] | > 10
Mono-Mac-6 [2] | > 10
NOMO-1 [9] | > 10
SHI-1 [4] | > 10
THP-1 [7] | > 10

Cc1cc(CS(=O)(=O)c2ccccc2)cc(OCc2ccc(CN3CCC[C@@H]3CO)cc2)c1 [PF-543 hydrochloride]
cell viability [%]
Details | 1 nM | 10 nM | 100 nM | 1000 nM | 10000 nM
BV-173 [29] | 83.7 | 103 | 152 | 87.8 | 56.7
HEL [25] | 92 | 88.6 | 105 | 88.1 | 94
HL-60 [30] | 118 | 92.2 | 119 | 83.7 | 79.8
K-562 [28] | 90.4 | 113 | 131 | 91.1 | 40.4
KCL-22 [20] | 91.5 | 94.5 | 122 | 82.5 | 84.9
KG-1 [26] | 92.1 | 102 | 114 | 111 | 84.3
KU-812 [23] | 97.5 | 91.6 | 97.7 | 101 | 61
LAMA-84 [18] | 108 | 91.9 | 103 | 93.9 | 71.5
ML-2 [27] | 89.8 | 97.3 | 130 | 91 | 88.5
MOLM-13 [16] | 72.9 | 110 | 88.8 | 117 | 79.6
MV4-11 [21] | 83.5 | 104 | 119 | 103 | 65.5
Mono-Mac-6 [17] | 89.6 | 84.7 | 101 | 89.8 | 82.9
NOMO-1 [24] | 89.2 | 94.9 | 103 | 101 | 93
SHI-1 [19] | 82.3 | 109 | 100 | 84.8 | 87.9
THP-1 [22] | 89.7 | 95.5 | 111 | 94.8 | 96.5

Details | IC50 (cell viability) [µM]
BV-173 [14] | 8.45
HEL [10] | > 10
HL-60 [15] | > 10
K-562 [13] | 4.85
KCL-22 [5] | > 10
KG-1 [11] | > 10
KU-812 [8] | > 10
LAMA-84 [3] | > 10
ML-2 [12] | > 10
MOLM-13 [1] | > 10
MV4-11 [6] | > 10
Mono-Mac-6 [2] | > 10
NOMO-1 [9] | > 10
SHI-1 [4] | > 10
THP-1 [7] | > 10

CC(C)(O)CNc1nc(Nc2ccnc(C(F)(F)F)c2)nc(-c2cccc(C(F)(F)F)n2)n1 [AG-221]
cell viability [%], HL-60 [31]
Details | 0.001 µM | 0.01 µM | 0.1 µM | 1 µM | 10 µM
co-treatment: AZD3965 100 nM | 93.5 ± 4.8 | 105 ± 3 | 100 ± 5.2 | 98.6 ± 2.3 | 104 ± 2.8
co-treatment: DMSO vehicle | 96.6 ± 2.4 | 102 ± 7.7 | 101 ± 3.7 | 97.1 ± 1.5 | 103 ± 1.9
co-treatment: GSK2194069 100 nM | 85.8 ± 1.6 | 95.9 ± 8.7 | 100 ± 9.9 | 89 ± 5.2 | 94.2 ± 2.1
co-treatment: pictilisib 100 nM | 89.3 ± 3.3 | 104 ± 3 | 102 ± 8.6 | 94.9 ± 0.96 | 108 ± 5.6

HL-60 [32]
Details | area under dose-response curve
co-treatment: AZD3965 100 nM | < 0.0301
co-treatment: DMSO vehicle | < 0.0301
co-treatment: GSK2194069 100 nM | < 0.0301
co-treatment: pictilisib 100 nM | < 0.0301
